Counter-ions that a name gives are not always drawn.

One test addresses T1, SHP-2 (Homo sapiens, UniProt Q06124).
T1 construct: using the catalytic core of a human recombinant PTP as the enzyme
T1 sequence (Q06124 247-517 limits assumed): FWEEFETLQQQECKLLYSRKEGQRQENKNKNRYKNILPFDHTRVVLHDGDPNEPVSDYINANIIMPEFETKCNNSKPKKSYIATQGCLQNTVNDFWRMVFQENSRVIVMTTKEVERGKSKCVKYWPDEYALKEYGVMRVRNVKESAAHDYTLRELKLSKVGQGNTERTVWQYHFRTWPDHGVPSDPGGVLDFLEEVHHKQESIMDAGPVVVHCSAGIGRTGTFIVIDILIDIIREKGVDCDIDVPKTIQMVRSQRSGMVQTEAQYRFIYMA
The test can be described thus: PTP Enzyme Assay (DiFMUP), SHP-2. The test is classed as biochemical. Conditions: 20 μM DiFMUP substrate; catalytic core of human recombinant PTP; triplicates; read-out: IC50 value in respect of SHP-2. The procedure: (§1) The PTP Enzyme Assay aims at determining the extent of inhibition of PTPs, e.g. of PTP1B, SHP-1, SHP-2, GLEPP-1 or PTP-H1 in the presence of a test compound of formula (I) or (I′). The inhibition is illustrated by IC50 values which denote the concentration of test compound necessary to achieve an inhibition of 50% of said PTP's using the following concentration of the PTP substrate DiFMUP: • 5 μM DiFMUP for PTP1B and PTP-H1; • 20 μM DiFMUP for SHP-1 and SHP-2. • 30 μM DiFMUP for GLEPP-1. a) PTPs Cloning
(§2) The DiFMUP assay allows to follow the dephosphorylation of DiFMUP (6,8-DiFluoro-4-MethylUmbelliferyl Phosphate)—which is the PTP substrate—mediated by PTP into its stable hydrolysis product, i.e. DiFMU (6,8-difluoro-7-hydroxy coumarin). Due to its rather low pKa and its high quantum yield, DiFMU allows to measure both acidic and alkaline phosphatase activities with a great sensitivity.
(§3) Assays were performed in a 96 well plate format, using the catalytic core of a human recombinant PTP as the enzyme and 6,8-DiFluoro-4-MethylUmbelliferyl Phosphate (DiFMUP, Molecular Probes, D-6567) as a substrate. Compounds to be tested were dissolved in 100% DMSO at a concentration of 2 mM. Subsequent dilutions of the test compounds (to yield a concentration of 100, 30, 10, 3, 1, 0.3, 0.1, 0.03, 0.01, 0.001 μM) wore performed in 60% DMSO manually. 8 μl of diluted compound or vehicle (60% DMSO=control) was distributed to a black Costar 96 well plate. 42 μl of human recombinant PTP enzyme diluted in assay buffer (20 mM Tris HCl pH 7.5, 0.01% IGEPAL CA-630, 0.1 mM ethylenediaminetetracetic acid, 1 mM DL-Dithiothreitol) can be added to the dilutions of compound or vehicle (distributed to a black Costar 96 well plate), followed by 50 μl of DiFMUP diluted in the assay buffer. The reaction ran for 30 minutes at room temperature before reading the fluorescence intensity (integral or intensity) on a Perkin-Elmer Victor 2 spectrofluorimeter (excitation of 6,8-difluoro-7-hydroxy coumarin is at 355 nm, the emission at 460 nm, for 0.1 s). The percentage of inhibition is determined by measuring the relative fluorescence ion absence of a test compound (PTP inhibitor), i.e. with the solvent alone (5% DMSO). The IC50 values for inhibition were determined in triplicates.

The next test has as its target T2, PTP-H1 (Homo sapiens, UniProt P26045).
T2 construct: using the catalytic core of a human recombinant PTP as the enzyme
T2 sequence (P26045 646-901 limits assumed): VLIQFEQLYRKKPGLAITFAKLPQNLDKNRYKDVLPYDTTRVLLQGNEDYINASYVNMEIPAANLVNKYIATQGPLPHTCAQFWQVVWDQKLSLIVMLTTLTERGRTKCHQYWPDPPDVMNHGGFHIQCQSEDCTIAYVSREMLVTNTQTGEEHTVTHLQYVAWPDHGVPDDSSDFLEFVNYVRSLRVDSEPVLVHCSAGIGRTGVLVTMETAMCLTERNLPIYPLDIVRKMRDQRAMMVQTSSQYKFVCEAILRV
The test is described as follows: PTP Enzyme Assay (DiFMUP), PTP-H1. The test is classed as biochemical. Conditions: 5 μM DiFMUP substrate; catalytic core of human recombinant PTP; triplicates; read-out: IC50 value in respect of PTP-H1. The protocol: as §1, §2, §3

For the next test, the target named is T3, PTP1B (Homo sapiens, UniProt P18031).
T3 construct: using the catalytic core of a human recombinant PTP as the enzyme; made in house
T3 sequence (P18031 3-277 limits assumed): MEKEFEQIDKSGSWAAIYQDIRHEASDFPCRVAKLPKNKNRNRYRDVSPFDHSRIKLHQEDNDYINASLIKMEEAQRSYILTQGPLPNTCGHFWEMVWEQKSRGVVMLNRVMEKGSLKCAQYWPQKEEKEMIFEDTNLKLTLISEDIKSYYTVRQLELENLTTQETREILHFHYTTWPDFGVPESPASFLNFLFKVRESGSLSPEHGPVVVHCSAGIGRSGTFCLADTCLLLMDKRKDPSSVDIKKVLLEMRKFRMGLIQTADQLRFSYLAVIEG
The test can be described thus: PTP Enzyme Assay (DiFMUP), PTP1B. Conditions: 5 μM DiFMUP substrate; catalytic core of human recombinant PTP; triplicates; read-out: IC50 value in respect of PTP1B. The test is classed as biochemical. The protocol:
as §1
The cloning and expression of the catalytic domain e.g. of PTP1B, may be performed as described in J. Biol. Chem. 2000, 275(13), pp 9792-9796.
as §2, §3

The target in the next test is T4, GLEPP-1 (Homo sapiens, UniProt Q16827).
T4 construct: using the catalytic core of a human recombinant PTP as the enzyme
T4 sequence (Q16827 938-1195 limits assumed): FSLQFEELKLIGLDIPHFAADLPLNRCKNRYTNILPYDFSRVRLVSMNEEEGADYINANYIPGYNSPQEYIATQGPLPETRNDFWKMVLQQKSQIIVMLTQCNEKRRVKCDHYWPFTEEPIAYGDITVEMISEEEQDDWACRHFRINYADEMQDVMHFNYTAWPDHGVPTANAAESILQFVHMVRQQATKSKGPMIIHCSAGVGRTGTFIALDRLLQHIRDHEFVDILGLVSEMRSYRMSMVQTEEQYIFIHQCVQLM
The test is described as follows: PTP Enzyme Assay (DiFMUP), GLEPP-1. Conditions: 30 μM DiFMUP substrate; catalytic core of human recombinant PTP; triplicates; read-out: IC50 value in respect of GLEPP-1. The test is classed as biochemical. The protocol:
as §1, §2, §3

The test system of another test is db/db mice. The test is described as follows: In vivo assay in db/db mice (postprandial glycemia). Conditions: 4 hrs after drug administration, expressed as a percentage of control (vehicle, Group 1). The protocol: The following assay aims at determining the anti-diabetic effect of the test compounds of formula (I) or (I′) in a model of postprandial glycemia in db/db mice, in vivo.
A total of 18 db/db mice (about 8-9 weeks; obtained from IFFACREDO, l'Arbreste, France) were fasted during 20 hours.
3 groups, each consisting of 6 animals were formed: • Group 1: The animals were administered (per os) a dose of 10 mL/kg of vehicle (control). • Group 2: The animals were administered (per os) a dose of 30 mg/kg of the test compound according to formula (I) solubilized in the vehicle. • Group 3: The animals were administered (per os) a dose of 100 mg/kg of the test compound according to formula (I) solubilized in the vehicle.
After oral administration of the compounds of formula (I) or (I′) solubilized or suspended in CarboxyMethylCellulose (0.5%), Tween 20 (0.25%) in water as vehicle, the animals had access to commercial food (D04, UAR, Villemoisson/Orge, France) ad libitum. The diabetic state of the mice was verified by determining the blood glucose level before fasting. Blood glucose and serum insulin levels were then determined 4 hrs after drug administration.
The determination of the blood glucose level was performed using a glucometer (Ascensia Dex^2, Bayer, ref 3956C).
The determination of the Insulin level was performed using an ELISA kit (Mercodia, ref 10-1149-10).
Changes in blood glucose and serum insulin of drug treated mice were expressed as a percentage of control (group 1: vehicle treated mice).

For a further test, the target named is T5, SHP-1 (Homo sapiens, UniProt P29350).
T5 construct: using the catalytic core of a human recombinant PTP as the enzyme
T5 sequence (P29350 244-515 limits assumed): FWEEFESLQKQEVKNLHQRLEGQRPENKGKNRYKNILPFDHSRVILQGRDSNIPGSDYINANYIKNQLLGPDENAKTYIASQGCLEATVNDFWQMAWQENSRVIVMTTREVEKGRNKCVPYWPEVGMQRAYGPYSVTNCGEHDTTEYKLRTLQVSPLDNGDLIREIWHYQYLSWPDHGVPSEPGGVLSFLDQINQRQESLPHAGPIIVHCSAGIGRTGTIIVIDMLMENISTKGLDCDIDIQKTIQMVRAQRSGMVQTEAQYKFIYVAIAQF
The test can be described thus: PTP Enzyme Assay (DiFMUP), SHP-1. The test is classed as biochemical. Conditions: 20 μM DiFMUP substrate; catalytic core of human recombinant PTP; triplicates; read-out: IC50 value in respect of SHP-1. The procedure: as §1, §2, §3

Broadly, the IC50 is the concentration that gives 50% inhibition. Take `CCCCCCCCC#Cc1ccc(CN(C(=O)CCC2CCCC2)c2ccc(O)c(C(=O)O)c2)cc1` [Example 2, 5-[(3-cyclopentylpropanoyl)(4-dec-1-ynylbenzyl)amino]-2-hydroxybenzoic acid. N-methyl-D-glucamine (i.e. 1-deoxy-1-(methylamino)glucitol) salt]: the IC50 on SHP-2 was 490 nM; at PTP-H1, 3370 nM; at PTP1B, 490 nM; on GLEPP-1 it was 610 nM; on SHP-1, 1200 nM. The figures for the “Decrease in blood glucose” value in the test on db/db mice (Group 2: 30 mg/kg per os) and in the test on db/db mice (Group 3: 100 mg/kg per os) were 28% and 58%, respectively. For the same compound, the “Decrease in serum insulin” value in the test with db/db mice (Group 2: 30 mg/kg per os) was found to be 84%; in the test on db/db mice (Group 3: 100 mg/kg per os) it was 88%.
As for `CCCCCCCCC#Cc1ccc(CN(Cc2ccc(OCC(=O)O)c(C(=O)O)c2)C(=O)/C=C/c2ccccc2)cc1` [Example 16, 2-(carboxymethoxy)-5-({(4-dec-1-ynylbenzyl)[(2E)-3-3-phenylprop-2-enoyl]amino}methyl)benzoic acid], the IC50 is 1400 nM at SHP-2; 5700 nM on PTP-H1; 290 nM on PTP1B; 210 nM on GLEPP-1; 1600 nM at SHP-1.
Take `CCCCc1ccc(C#Cc2ccc(CN(C(=O)Cc3cccs3)c3ccc(F)c(C(=O)O)c3)cc2)cc1` [Example 68, 5-[{4-[(4-butylphenyl)ethynyl]benzyl}(2-thienylacetyl)amino]-2-fluorobenzoic acid, N-methyl-D-glucamine (i.e. 1-deoxy-1-(methylamino)glucitol) salt]: the 50% inhibitory concentration (IC50) on SHP-2 is 1900 nM; on PTP-H1 it was 9900 nM; at PTP1B it was 490 nM; at GLEPP-1, 1580 nM; on SHP-1 it was 3700 nM.
Consider `CCCCc1ccc(C#Cc2ccc(CN(C(=O)C(C)(C)C)c3ccc(C(=O)O)c(O)c3)cc2)cc1` [Example 76, 4-[{4-[(4-butylphenyl)ethynyl]benzyl}(2,2-dimethylpropanoyl)amino]-2-hydroxybenzoic acid, N-methyl-D-glucamine (i.e. 1-deoxy-1-(methylamino)glucitol) salt], for which the IC50 at SHP-2 was found to be 2200 nM; on PTP-H1, 6300 nM; at PTP1B it was 970 nM; on GLEPP-1, 990 nM; on SHP-1 it was 3000 nM.
